# Results: PMC3823594, “Conformational Changes Underlying Pore Dilation in the Cytoplasmic Domain of Mammalian Inward Rectifier K^+ Channels” (PLoS ONE, 2013)
# Substitutions are numbered along the chain they refer to.
# What was measured:
# Assay in all cases: Two-electrode voltage clamp, ACh-dependent (m2R-dependent) K+ current activation
# Assay type in all cases: cell-based
# Kir3.2 E236N = target: T1, Kir3.2 E236N (Mus musculus, UniProt P48542, E236N); settings: Kir3.2 E236N with porcine m2R in Xenopus oocytes; −120 mV; Hill equation fit
# T1 sequence (P48542 19-425 E236N): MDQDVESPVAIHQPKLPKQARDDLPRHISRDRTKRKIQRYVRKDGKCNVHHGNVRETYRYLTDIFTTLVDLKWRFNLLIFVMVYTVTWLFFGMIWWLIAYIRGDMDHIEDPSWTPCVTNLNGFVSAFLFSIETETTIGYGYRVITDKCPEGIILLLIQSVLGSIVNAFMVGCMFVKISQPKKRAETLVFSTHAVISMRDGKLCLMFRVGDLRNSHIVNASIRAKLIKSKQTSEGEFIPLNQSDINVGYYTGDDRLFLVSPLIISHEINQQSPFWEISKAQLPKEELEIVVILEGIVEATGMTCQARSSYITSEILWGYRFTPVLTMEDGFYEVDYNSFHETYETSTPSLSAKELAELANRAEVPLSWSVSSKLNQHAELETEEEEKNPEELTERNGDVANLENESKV
# T1 sequence (P06199 1-466 partner): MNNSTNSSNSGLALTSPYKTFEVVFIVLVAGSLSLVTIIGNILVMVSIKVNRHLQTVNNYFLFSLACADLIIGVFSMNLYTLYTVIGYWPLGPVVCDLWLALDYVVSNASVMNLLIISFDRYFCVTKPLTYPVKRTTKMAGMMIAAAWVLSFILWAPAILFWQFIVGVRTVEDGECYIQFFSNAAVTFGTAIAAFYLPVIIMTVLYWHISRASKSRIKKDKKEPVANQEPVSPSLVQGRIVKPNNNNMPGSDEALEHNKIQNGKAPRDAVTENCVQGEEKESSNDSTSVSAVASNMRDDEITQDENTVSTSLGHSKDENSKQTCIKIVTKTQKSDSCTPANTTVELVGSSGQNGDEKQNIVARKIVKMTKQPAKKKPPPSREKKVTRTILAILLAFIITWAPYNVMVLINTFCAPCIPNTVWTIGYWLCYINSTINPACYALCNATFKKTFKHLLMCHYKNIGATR
# From the text: (§1) The mouse Kir3.2d isoform was subjected to functional analyses. The amino acid numbers correspond to the longest mouse Kir3.2 isoform. Point mutations were introduced using the QuikChange site-directed mutagenesis kit (Stratagene, La Jolla, CA), and the presence of the mutations was confirmed by direct DNA sequencing. The care of Xenopus laevis was in accordance with the guideline of the Institute of Experimental Animal Sciences, Osaka University. The protocol was approved by the Animal Experiment Committee of Osaka University. The frogs were deeply anesthetized by immersing in 0.2% tricaine methanesulfonate for 20 min at 18°C. A portion of an ovary lobe was surgically removed and incubated with collagenase to remove follicular cells. The oocytes were injected with the cRNAs of Kir3.2 and porcine m2-muscarinic receptor (m2R), and maintained in modified Barth’s solution at 18°C with daily solution changes. Electrophysiological studies were undertaken 48–72 h later at room temperature (20–25°C). Two-electrode voltage-clamp recordings from oocytes were performed using a GeneClamp 500B amplifier (Axon Instruments, Sunnyvale, CA). […] The bath solution contained 40 mM KCl, 50 mM NaCl, 3 mM MgCl2, 0.15 mM niflumic acid, and 5 mM HEPES-KOH (pH 7.4). The currents were recorded in the absence or presence of various concentrations of acetylcholine (ACh). Ba^2+ (3 mM) was added at the end of the recording to estimate the endogenous leak current. The data are expressed as mean values ± standard error of the mean. For the quantitative estimation of ACh-dependent current responses of the wild-type (WT) and mutant channels, the current amplitudes at the end of test pulses at each ACh concentration ([ACh]) were fitted using the following equation:
# (§2) I=min+[(max−min)/(1+(EC50/[ACh])^nH)]
# (§3) where I is the current amplitude measured at the [ACh], n H is the Hill coefficient, and EC50 is the concentration that induces 50% of the maximal response. […] The values of n H and EC50 were calculated using a non-linear least-squares best fit (SigmaPlot 9; Systat Software). Statistical analyses were performed by one-way ANOVA with post-hoc tests.
# Kir3.2 M313A = target: T2, Kir3.2 M313A (Mus musculus, UniProt P48542, I313A); settings: Kir3.2 M313A with porcine m2R in Xenopus oocytes; −120 mV; Hill equation fit
# T2 sequence (P48542 19-425 I313A): T1 sequence (P48542 19-425 E236N) with N218E, I295A
# T2 sequence (P06199 1-466 partner): T1 sequence (P06199 1-466 partner)
# From the text: as §1, §2, §3
# Kir3.2 M313S = target: T3, Kir3.2 M313S (Mus musculus, UniProt P48542, I313S); settings: Kir3.2 M313S with porcine m2R in Xenopus oocytes; −120 mV; Hill equation fit
# T3 sequence (P48542 19-425 I313S): T1 sequence (P48542 19-425 E236N) with N218E, I295S
# T3 sequence (P06199 1-466 partner): T1 sequence (P06199 1-466 partner)
# From the text: as §1, §2, §3
compound,measurement,setting,value
"CC(=O)OCC[N+](C)(C)C [ACh, acetylcholine]",Hill coefficient,Kir3.2 E236N,0.82 ± 0.08
same,Hill coefficient,Kir3.2 M313A,1.05 ± 0.08
same,Hill coefficient,Kir3.2 M313S,1.04 ± 0.05
